Measured values from patent publication US8945540B2, “Compositions for enhancing the antibacterial activity of myeloperoxidase and methods of use thereof” (Exoxemis, Inc., priority 2008, dated 2015).
Read-outs that look alike come from different tables or passages of the source.

Assays:
[1] = tested on: Staphylococcus aureus; test: Control: microbicidal activity of the amino acid or analogue alone (no glucose, MPO, glucose oxidase) in the presence of blood; type: cell-based; settings: for log reduction at 5000 µM: Staphylococcus aureus, 1 h, read-out: Log Reduction 60 min
Excerpt: As a control to determine the microbicidal activity of the amino acids alone, the foregoing procedure was followed without replication, except in the absence of glucose, MPO, and glucose oxidase.

[2] = tested on: Staphylococcus aureus; test: Microbicidal activity of the myeloperoxidase system (p-MPO, glucose oxidase, glucose) with amino acids in the presence of blood, CFU plate counts; synergy determination from these CFU; type: cell-based; settings: for Average Viability CFU/ml 60 min / Log Reduction 60 min / Log 10 (CFU + 1) Survivors 60 min: MPO 38 U/ml, GO 33.3 U/ml; for Average Viability CFU/ml 50 min / Log Reduction 50 min: MPO 4.7 U/ml, GO 4.2 U/ml
Description: Bacterial suspensions, specifically Staphylococcus aureus in this example, were prepared by the shake flask method to achieve late log to early stationary phase growth. Bacteria were grown 24 hours in trypticase soy broth (TSB) at 35° C. The cultures were centrifuged at 4,000 rpm for 10 minutes and the supernatants removed. The pellet was collected and washed twice with sterile 0.9% normal saline (NS). The washed microorganisms were suspended and diluted with normal saline to a 3 McFarland standard, i.e., approximately 10^9 bacteria colony forming units (CFU) per mL. Actual colony counts are confirmed by serial dilutions (10^−1 to 10^−5 or 10^−6) plated on TSA and incubated overnight at 35° C. To obtain an approximate final working target inoculum of 10^7 CFU/mL, 15 microliters of organisms per mL of final reaction mixture are used.
Glucose oxidase (GO) from Aspergillus Niger was purchased from Biozyme, Inc., UK, Cat #GO3A, 270 U/mg). Porcine Myeloperoxidase (p-MPO) (Exoxemis, Inc., Little Rock, Ark. U.S.A., 375 U/mg). Sterile stock solutions of D-glucose and sodium chloride were prepared and used at a final concentration of 150 mM each. L-Lysine hydrochloride (Spectrum Chemical Cat #L1142) was prepared as a 100 mM stock solution. Catalase (Sigma, Cat #C-40) was prepared as a 1% stock solution in sterile 0.9% normal saline. Blood was collected by venipuncture and used as whole blood within the same day.
Staphylococcus aureus were used to give a final target concentration of 2-3×10^7 CFU (7.4 log 10) per mL and venous whole blood was used to give a final concentration of 3%. Glucose was added to the reaction mixtures to a final concentration of 150 mM, which initiated the microbicidal reaction. The final volume of the reaction mixtures was 1 mL. The reactions were allowed to run from 30 minutes to 2 hours, as needed, at room temperature or at 37° C. in a dry bath. At the specified time points the reaction mixtures were treated with 100 microliters of a catalase solution, containing a minimum of 100 units/μL, to consume remaining peroxide and terminate the oxidative killing. Serial dilution plate counts were performed from the contents of each vial in sterile saline and inoculated onto trypticase soy agar (TSA) for quantitative culture. Plates were then incubated at 37° C. and counts taken at 24 hours. […] The results are shown in Table 1, as the average of 2 replicates.
The amino acids alone, in the absence of MPO were tested to rule out their microbicidal activity. The results are shown in Table 2 to Table 6, as the average of 2 replicates.
The amino acid analogues alone, in the absence of MPO, were tested to rule out their microbicidal activity. […]
The effect of two-way combinations of individual amino acids with L-isoleucine, as potential enhancing agents, for MPO microbicidal action in the presence of blood, was therefore examined by following the procedure of Example 5.
The Actual CFU observed for the pair is then divided by the Predicted CFU and multiplied by 100 to calculate the % of Predicted value. This value is then to be compared to the threshold value, discussed in the next section, to determine whether the pair are synergistic, antagonistic, or additive.
Calculation of appropriate threshold values for determination of synergism and antagonism was based upon the variability of replicated CFU survivor measures.

[3] = amino acid analogue alone 5 mM, MPO 0, GO 0, no glucose, blood
[4] = Table 7, amino acid analogue 5 mM, blood
[5] = amino acid alone 5 mM, MPO 0, GO 0, no glucose, blood, without replication
[6] = MPO 100 μg/mL, AA 20 mM, 30 min
[7] = MPO 100 μg/mL, AA 20 mM, 60 min
[8] = Table 2, amino acid 5 mM (none: 0 mM), blood
[9] = Table 10, single amino acid 2.5 mM, in the presence of blood, 50 min
[10] = Table 13, single amino acid 2.5 mM, in the presence of blood, 50 min
[11] = single amino acid 2.5 mM, blood
[12] = Table 19, amino acid (racemic, L- or D-form) 2.5 mM, 50 min
[13] = Table 3, amino acid 5 mM (none: 0 mM), blood
[14] = Table 11, single amino acid 2.5 mM, in the presence of blood, 50 min
[15] = Table 14, single amino acid 2.5 mM, in the presence of blood, 50 min
[16] = Table 19, amino acid 3.5 mM, 50 min

## COC(=O)[C@@H]1CCCN1.Cl [L-Proline methyl ester hydrochloride]
[1]; [3]
  log reduction at 5000 µM: 0
  Average Viability CFU/ml 60 min: 23200000 CFU/ml
[2]; [4]
  Average Viability CFU/ml 60 min: 0 CFU/ml
  Log Reduction 60 min: 7.4

## NCC(=O)O [Glycine]
[1]; [5]
  log reduction at 5000 µM: 0
  Average Viability CFU/ml 60 min: 25300000 CFU/ml
[2]; MPO 25 μg/mL, AA 5 mM, 30 min
  Log 10 (CFU + 1) Survivors: 7.2
[2]; MPO 25 μg/mL, AA 5 mM, 60 min
  Log 10 (CFU + 1) Survivors: 6.8
[2]; MPO 25 μg/mL, AA […], 30 min
  Log 10 (CFU + 1) Survivors: 7.3
[2]; MPO 25 μg/mL, AA […], 60 min
  Log 10 (CFU + 1) Survivors: 6.9
[2]; MPO 100 μg/mL, AA 5 mM, 30 min
  Log 10 (CFU + 1) Survivors: 6.0
[2]; MPO 100 μg/mL, AA 5 mM, 60 min
  Log 10 (CFU + 1) Survivors: 0.0
[2]; [6]
  Log 10 (CFU + 1) Survivors: 7.0
[2]; [7]
  Log 10 (CFU + 1) Survivors: 0.0
[2]; [8]
  Average Viability CFU/ml 60 min: 0 CFU/ml
  Log 10 (CFU + 1) Survivors 60 min: 0.0
  Log Reduction 60 min: 7.4
[2]; [9]
  Average Viability CFU/ml 50 min: 9100 CFU/ml
  Log Reduction 50 min: 3.4
[2]; [10]
  Average Viability CFU/ml 50 min: 10050 CFU/ml
  Log Reduction 50 min: 3.4
[2]; [11]
  Average Viability CFU/ml 50 min: 7050 CFU/ml
  Log Reduction 50 min: 3.5
[2]; standard conditions of Example 5 (2.5 μmol/mL; MPO 4.7 U/mL; GO 4.2 U/mL)
  CFU survivors, amino acid acting separately: 9300 CFU

## O=C(O)C1CCCNC1 (centres unmarked) [Nipecotic acid]
[1]
  log reduction at 5000 µM: 0
[2]; [4]
  Log Reduction 60 min: 7.4

## CC(C)[C@H](N)C(=O)O [L-Valine]
[1]; [5]
  log reduction at 5000 µM: 0
  Average Viability CFU/ml 60 min: 23100000 CFU/ml
[2]; MPO 25 μg/mL, AA 5 mM, 30 min
  Log 10 (CFU + 1) Survivors: 4.7
[2]; MPO 25 μg/mL, AA 5 mM, 60 min
  Log 10 (CFU + 1) Survivors: 0.0
[2]; MPO 25 μg/mL, AA […], 30 min
  Log 10 (CFU + 1) Survivors: 4.8
[2]; MPO 25 μg/mL, AA […], 60 min
  Log 10 (CFU + 1) Survivors: 0.0
[2]; MPO 100 μg/mL, AA 5 mM, 30 min
  Log 10 (CFU + 1) Survivors: 0.0
[2]; MPO 100 μg/mL, AA 5 mM, 60 min
  Log 10 (CFU + 1) Survivors: 0.0
[2]; [6]
  Log 10 (CFU + 1) Survivors: 0.0
[2]; [7]
  Log 10 (CFU + 1) Survivors: 0.0
[2]; [8]
  Average Viability CFU/ml 60 min: 0 CFU/ml
  Log 10 (CFU + 1) Survivors 60 min: 0.0
  Log Reduction 60 min: 7.4
[2]; [9]
  Average Viability CFU/ml 50 min: 104500 CFU/ml
  Log Reduction 50 min: 2.4
[2]; [12]
  Average Viability CFU/ml 50 min: 104500 CFU/ml
  Log Reduction 50 min: 2.4
[2]; [11]
  Average Viability CFU/ml 50 min: 104500 CFU/ml
  Log Reduction 50 min: 2.4

## CC[C@H](C)[C@H](N)C(=O)O [L-Isoleucine]
[1]; [5]
  log reduction at 5000 µM: 0
  Average Viability CFU/ml 60 min: 20500000 CFU/ml
[2]; MPO 25 μg/mL, AA 5 mM, 30 min
  Log 10 (CFU + 1) Survivors: 0.0
[2]; MPO 25 μg/mL, AA 5 mM, 60 min
  Log 10 (CFU + 1) Survivors: 0.0
[2]; MPO 25 μg/mL, AA […], 30 min
  Log 10 (CFU + 1) Survivors: 2.1
[2]; MPO 25 μg/mL, AA […], 60 min
  Log 10 (CFU + 1) Survivors: 0.0
[2]; MPO 100 μg/mL, AA 5 mM, 30 min
  Log 10 (CFU + 1) Survivors: 0.0
[2]; MPO 100 μg/mL, AA 5 mM, 60 min
  Log 10 (CFU + 1) Survivors: 0.0
[2]; [6]
  Log 10 (CFU + 1) Survivors: 0.0
[2]; [7]
  Log 10 (CFU + 1) Survivors: 0.0
[2]; [13]
  Average Viability CFU/ml 60 min: 0 CFU/ml
  Log 10 (CFU + 1) Survivors 60 min: 0.0
  Log Reduction 60 min: 7.3
[2]; [9]
  Average Viability CFU/ml 50 min: 159500 CFU/ml
  Log Reduction 50 min: 2.2
[2]; [14]
  Average Viability CFU/ml 50 min: 155500 CFU/ml
  Log Reduction 50 min: 2.2
[2]; [15]
  Average Viability CFU/ml 50 min: 117000 CFU/ml
  Log Reduction 50 min: 2.4
[2]; [16]
  Average Viability CFU/ml 50 min: 129333 CFU/ml
  Log Reduction 50 min: 2.3
[2]; [11]
  Average Viability CFU/ml 50 min: 73000 CFU/ml
  Log Reduction 50 min: 2.5
